Results on eight molecules are retold here after ChEMBL document CHEMBL5137025, “Tuberculosis Drug Discovery: Challenges and New Horizons” (J Med Chem, 2022).

For data set [1], the system named is Mycobacterium tuberculosis. Format: functional, H37Rv. The following applies: dose 100 mg/kg; route po; time 4 weeks.
Data set [2] concerns Mycobacterium tuberculosis. Format: functional. The following applies: H37Rv, 336 h, time 14 day.
Data set [3] deals with HepG2. Put plainly: Cytotoxicity against human HepG2 cells assessed as reduction in cell viability treated for 3 days by resazurin reduction microplate assay. Format: functional. The following applies: HepG2, 72 h, time 3 day.
Data set [4] relates to Mycobacterium tuberculosis. Format: functional, H37Rv. The following applies: dose 100 mg/kg; route po; time 10 day.
Data set [5] has as its system Mycobacterium tuberculosis. Format: functional. The following applies: H37Rv, time 6 day.
In data set [6] the test system is Mycobacterium tuberculosis. Briefly: microbe, parasite or virus in culture. Conditions: H37Rv.
Description: Antibacterial activity against Mycobacterium tuberculosis H37Rv assessed as inhibition of bacterial growth
A further data set concerns A549. Put plainly: Cytotoxicity against human A549 cells treated for 72 hrs by MTT assay. In kind it is functional.
The subject of data set [7] is Mycobacterium tuberculosis. Briefly: Bactericidal activity against Mycobacterium tuberculosis H37Rv in acute Mtb infection BALB/c mouse model assessed as reduction in relative light unit at 100 mg/kg for 6 days. In kind it is functional. The following applies: time 6 day.
Data set [8] is described as follows: Metabolic stability in mouse liver microsome assessed as half life in presence of NADPH measured upto 60 mins by LC-MS/MS analysis. The following applies: liver microsomes. In kind it is ADME. Background: Liver microsomes are a subcellular fraction often used to study metabolism.
The nature of data set [9]: Kinetic aqueous solubility of the compound. Format: physicochemical. Conditions: buffer; read-out: Kinetic_solubility.
The subject of data set [10] is Mycobacterium tuberculosis. Put plainly: Antibacterial activity against Mycobacterium tuberculosis in chronic Mtb infection C3HeB/FeJ mouse model assessed as reduction in log10 CFU in lungs at 250 mg/kg, po via gavage for 2 weeks. Format: functional.
Data set [11] relates to Mycobacterium tuberculosis. Put plainly: Antibacterial activity against Mycobacterium tuberculosis in acute Mtb infection C3HeB/FeJ mouse model assessed as reduction in log10 CFU in lungs at 250 mg/kg, po via gavage for 2 weeks. In kind it is functional.
Data set [12] in a line: Cytotoxicity against African green monkey Vero cells treated for 72 hrs by microplate reader method. In kind it is toxicity, cell-based. The following applies: chlorocebus sabaeus.
Data set [13] is described as follows: Metabolic stability in mouse liver microsomes assessed as half life. Format: ADME, Microsome.
Data set [14] relates to Mycobacterium tuberculosis. Briefly: Antibacterial activity against Mycobacterium tuberculosis CDC1551 infected in mouse J774 cells assessed as inhibition of bacterial growth at 20 uM incubated for 24 hrs relative to control. Format: functional. Details: scale not given: the % may be the effect or the level left.
A short description of data set [15]: Protein binding in mouse plasma. Format: ADME, cell-free. The following applies: read-out: PPB (converted).
Data set [16] relates to Mycobacterium tuberculosis. In kind it is functional. The following applies: H37Rv, 120 h, time 5 day.
Data set [17] in a line: Solubility of the compound in microbiological medium at pH 6.8. In kind it is physicochemical.
A short description of data set [18]: Cytotoxicity against African green monkey Vero cells treated for 2 days by Cell Titer Glo assay. Format: toxicity, cell-based. The following applies: chlorocebus sabaeus, time 2 day. In general terms: Cellular ATP, detected with luciferase, serves as a proxy for viable cell number.
The subject of data set [19] is Mycobacterium tuberculosis. In kind it is functional. The following applies: H37Rv, 216 h, time 9 day.
Data set [20] is described as follows: Half life in BALB/c mouse at 200 mg/kg, po measured for 0.5 to 24 hrs by LC-MS analysis. Conditions: in vivo, time 0.5-24 hrs. In kind it is ADME, organism-based.
Data set [21] has as its system Mycobacterium tuberculosis. Briefly: Antibacterial activity against Mycobacterium tuberculosis Erdman in chronic Mtb infection BALB/c mouse model assessed as reduction in log10 CFU in lungs at 200 mg/kg, po via gavage for 30 days in presence of 1-aminobenzotriazole. Format: functional. The following applies: time 30 day.
In data set [22] the test system is Mycobacterium tuberculosis. Put plainly: Antibacterial activity against Mycobacterium tuberculosis Erdman in chronic Mtb infection BALB/c mouse model assessed as reduction in log10 CFU in lungs at 100 mg/kg, po via gavage for 30 days in presence of 1-aminobenzotriazole. The following applies: time 30 day. In kind it is functional.
Data set [23] is described as follows: Metabolic stability in human liver S9 microsomes assessed as half life in presence of NADPH by LC-MS/MS analysis. Format: ADME.
In data set [24] the test system is Mycobacterium tuberculosis. Put plainly: Antibacterial activity against Mycobacterium tuberculosis Erdman in chronic Mtb infection BALB/c mouse model assessed as reduction in log10 CFU in lungs at 200 mg/kg, po via gavage for 30 days. Format: functional. Conditions: time 30 day.
Data set [25] can be described thus: Permeability in human Caco2 cells treated for 1 to 2 hrs by LC-MS/MS analysis. Format: ADME, cell-based. Conditions: Caco-2, time 1-2 hrs, read-out: permeability.
Data set [26] concerns Mycobacterium tuberculosis. Format: functional, H37Rv. Conditions: dose 150 mg/kg; route po; time 10 day.
Data set [27] concerns HepG2. Put plainly: Cytotoxicity against human HepG2 cells assessed as reduction in cell viability treated for 3 days by resazurin dye based assay. In kind it is functional. Conditions: HepG2, 72 h, time 3 day. Background: Alamar Blue is a resazurin reagent that responds to reducing activity.
Data set [28] concerns Mycobacterium tuberculosis. Format: functional. The following applies: H37Rv, time 6 day. This is another data set of the same source.
Data set [29] in a line: Metabolic stability in rat liver microsomes assessed as half life in presence of NADPH regenerating system measured for 5 to 60 mins by LC/MS/MS analysis. Conditions: time 5-60 min. Format: ADME, Microsome.
Data set [30] can be described thus: Oral bioavailability in Sprague-Dawley rat at 5 mg/kg measured for 0.083 to 24 hrs by LC-MS/MS analysis. Conditions: in vivo, time 0.083-24 hrs. Format: ADME, organism-based.
Data set [31] concerns HepG2. Briefly: Cytotoxicity against human HepG2 cells. Format: functional.
The next data set addresses Cytochrome P450 2C9 (Homo sapiens, UniProt P11712). Put plainly: Inhibition of CYP2C9 in human liver microsome in presence of NADPH measured after 10 mins by LC/MS/MS analysis. In kind it is ADME, microsomes.
The nature of data set [32]: Metabolic stability in mouse liver microsomes assessed as half life in presence of NADPH regenerating system measured for 5 to 60 mins by LC/MS/MS analysis. The following applies: time 5-60 min. In kind it is ADME, Microsome.
The nature of data set [33]: Metabolic stability in human liver microsomes assessed as half life in presence of NADPH regenerating system measured for 5 to 60 mins by LC/MS/MS analysis. In kind it is ADME, Microsome. Conditions: time 5-60 min.
A short description of data set [34]: Half life in Sprague-Dawley rat at 5 mg/kg, po measured for 0.083 to 24 hrs by LC-MS/MS analysis. In kind it is ADME, organism-based. The following applies: in vivo, time 0.083-24 hrs.
Data set [35] has as its system Mycobacterium tuberculosis. Format: functional, H37Rv. The following applies: dose 50 mg/kg; route po; time 15 day.
The nature of data set [36]: Inhibition of Mycobacterium tuberculosis Shikimate dehydrogenase expressed in Escherichia coli BL21 using shikimic acid as substrate incubated for 60 mins in presence of NADP+ by enzymatic assay.
The next data set deals with T1, Cytochrome P450 1A2 (Homo sapiens, UniProt P05177).
T1 sequence (P05177 whole entry): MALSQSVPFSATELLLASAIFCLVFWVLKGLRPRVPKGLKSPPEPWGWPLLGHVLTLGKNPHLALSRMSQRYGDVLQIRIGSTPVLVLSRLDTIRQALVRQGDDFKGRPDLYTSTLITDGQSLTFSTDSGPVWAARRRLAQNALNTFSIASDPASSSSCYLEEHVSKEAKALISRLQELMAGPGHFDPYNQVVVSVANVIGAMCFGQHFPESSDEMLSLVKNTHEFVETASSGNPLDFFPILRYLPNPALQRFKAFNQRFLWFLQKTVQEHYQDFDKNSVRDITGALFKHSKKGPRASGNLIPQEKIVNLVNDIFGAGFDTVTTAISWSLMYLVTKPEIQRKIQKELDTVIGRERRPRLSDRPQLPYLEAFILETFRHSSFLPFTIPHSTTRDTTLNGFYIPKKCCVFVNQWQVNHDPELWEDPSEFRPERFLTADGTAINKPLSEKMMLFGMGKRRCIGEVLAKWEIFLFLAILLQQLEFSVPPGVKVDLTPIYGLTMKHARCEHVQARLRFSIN
Briefly: Inhibition of CYP1A2 in human liver microsome in presence of NADPH measured after 10 mins by LC/MS/MS analysis. In kind it is microsomes.

In the next data set the target is Cytochrome P450 2C19 (Homo sapiens, UniProt P33261). Briefly: Inhibition of CYP2C19 in human liver microsome in presence of NADPH measured after 10 mins by LC/MS/MS analysis. Format: ADME, microsomes.
Data set [37] has as its system Mycobacterium tuberculosis. In kind it is functional. Conditions: H37Rv, time 14-21 day.
Data set [38] deals with Mycobacterium tuberculosis. Put plainly: Antibacterial activity against Mycobacterium tuberculosis Erdman in acute Mtb infection BALB/c mouse model assessed as reduction in log10 CFU in lungs at 100 mg/kg, po qd via gavage for 4 weeks. Format: functional.

≈ marks a conversion by molar mass, not a printed value.

Sequence of Cytochrome P450 2C9 (P11712 whole entry): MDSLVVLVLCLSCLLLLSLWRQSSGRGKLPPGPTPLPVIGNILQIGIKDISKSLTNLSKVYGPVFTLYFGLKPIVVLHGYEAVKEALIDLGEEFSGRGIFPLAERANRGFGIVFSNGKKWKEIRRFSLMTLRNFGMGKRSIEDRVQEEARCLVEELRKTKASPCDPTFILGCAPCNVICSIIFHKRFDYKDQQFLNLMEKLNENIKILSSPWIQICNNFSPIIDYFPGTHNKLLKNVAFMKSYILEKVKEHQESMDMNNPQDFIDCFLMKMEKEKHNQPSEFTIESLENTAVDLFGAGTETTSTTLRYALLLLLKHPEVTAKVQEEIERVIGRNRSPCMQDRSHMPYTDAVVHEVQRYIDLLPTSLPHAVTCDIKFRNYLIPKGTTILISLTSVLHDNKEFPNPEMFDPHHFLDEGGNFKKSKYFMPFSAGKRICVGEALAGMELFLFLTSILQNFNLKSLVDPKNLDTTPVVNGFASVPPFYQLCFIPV
Sequence of Cytochrome P450 2C19 (P33261 whole entry): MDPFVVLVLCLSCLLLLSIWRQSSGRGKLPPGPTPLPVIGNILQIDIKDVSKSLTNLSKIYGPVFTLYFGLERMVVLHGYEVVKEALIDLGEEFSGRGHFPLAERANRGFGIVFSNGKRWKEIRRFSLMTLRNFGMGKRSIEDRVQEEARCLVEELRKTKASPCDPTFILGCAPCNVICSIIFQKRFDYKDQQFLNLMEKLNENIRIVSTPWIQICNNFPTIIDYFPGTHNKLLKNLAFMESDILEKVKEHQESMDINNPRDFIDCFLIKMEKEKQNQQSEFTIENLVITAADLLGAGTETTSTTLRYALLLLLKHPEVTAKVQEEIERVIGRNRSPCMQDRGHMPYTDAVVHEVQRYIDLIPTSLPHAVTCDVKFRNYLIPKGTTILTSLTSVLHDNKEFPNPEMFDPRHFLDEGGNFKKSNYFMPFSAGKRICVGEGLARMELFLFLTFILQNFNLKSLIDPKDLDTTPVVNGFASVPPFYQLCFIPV

In general, MIC99 refers to the lowest concentration that inhibits either 99% of growth or 99% of the strains tested, depending on the study. Regarding `Cc1cnc2c(c1)cc([N+](=O)[O-])c1cccnc12`, the Activity in data set [1] was found to be 1 log10CFU. The molecule further gave an MIC99 in data set [2] of 0.2 µM (≈ 0.0478 µg/mL).

In general, CC50 refers to the concentration at which the toxic effect on the cells reaches its halfway point. Consider `O=C(/C=C/c1nccs1)N1CCN(Cc2ccc3c(c2)OCO3)CC1`, for which the CC50 in the data set with HepG2 [3] was 210 µM. In [4], this molecule came in with an Activity of 0.9 log10CFU. Also, the MIC90 in data set [5] stood at 0.84 µM (≈ 0.3 µg/mL).

As usually defined, the half-life is the time needed for the level to fall by half in the phase considered. With `CC1(C)CCC(OC(=O)Nc2cc(O)cc(Cc3ccccc3)c2)CC1`, the MIC90 in [6] was 1.8 µM (≈ 0.636 µg/mL). The molecule further had a CC50 with A549 of 64 µM. Also, in data set [7], the Activity came out at 1.3 log10RLU. Besides, the half-life in data set [8] amounted to 1.8 min.

With `CCSc1ncc(CN2CCN(c3nc4ccccc4o3)CC2)cn1`, in data set [9], the solubility kinetic worked out at 76 µM (≈ 27 µg/mL). The Activity in [10] turned out to be 0.7 log10CFU; in [11], 0.9 log10CFU; in data set [14], 54%. Further, the CC50 at 72 h in data set [12] is greater than 141 µM. Also, the half-life in data set [13] stood at 49 min. Further, the fraction unbound in data set [15] is 0.03.

The term solubility denotes the concentration that dissolves in the medium under given conditions. With `Cc1cn2c(C(=O)NCc3ccc(N4CCN(c5ccc(C(F)(F)F)cn5)CC4)c(F)c3)c(C)nc2s1`, the MIC90 in data set [16] came out at 0.008 µM (≈ 0.00426 µg/mL). The molecule further showed a solubility in data set [17] of 50 µM (≈ 26.6 µg/mL). The molecule further had a CC50 at 48 h in [18] greater than 100 µM. Besides, the MIC in data set [19] stood at 1.1 µM (≈ 0.586 µg/mL). For the same molecule, the half-life was greater than 1440 min in [20] and 28 min in data set [23]. In addition, the Activity in [21] was 0.6 log10CFU; in data set [22], 0.3 log10CFU; in data set [24], 0.3 log10CFU. In data set [25], the Papp is less than 1 ×10⁻⁶ cm/s.

As for `CCSc1nc(NC)c2ccc(F)c(F)c2n1`, in data set [26], the Activity was 0.5 log10CFU. For the same molecule, the CC50 in the data set with HepG2 [27] was determined as 153 µM. Also, the MIC90 in data set [28] worked out at 0.2 µM (≈ 0.0511 µg/mL).

As a reminder, the bioavailability is the share of a dose that reaches the circulation, judged against a reference dose that is usually intravenous. Broadly, the IC50 is the concentration that gives 50% inhibition. On to `COc1ccc(OCc2nn3c(-c4ccc(Br)cc4)nnc3s2)cc1`, for which the half-life is 17 min in data set [29], 1.2 min in [32], 1.1 min in data set [33] and 66 min in data set [34]. Besides, the bioavailability in [30] amounted to 14%. Further, the CC50 in the data set on HepG2 [31] turned out to be 50 µM. Also, the IC50 amounted to 0.56 µM at Cytochrome P450 2C9, 29 µM in data set [36], 0.56 µM on Cytochrome P450 1A2 and 0.56 µM at Cytochrome P450 2C19. The MIC in data set [6] came to 4.8 µM (≈ 2 µg/mL). For the same molecule, the Activity in [35] worked out at 1.7 log10CFU.

In data set [37], `O=C1C=CN(c2c(F)cc(N3C[C@H](CNc4ccon4)OC3=O)c(F)c2F)CC1` [CONTEZOLID] displayed an MIC of 1.2 µM (≈ 0.49 µg/mL). Also, the Activity in data set [38] amounted to 2.3 log10CFU.
